The nature of series [1]: Pharmacokinetic and brain penetration study, single subcutaneous dose, male C57BL/6J mouse (plasma, CSF, brain). As to conditions: in vivo, sc, 0.0367 mg/kg.
Experimental: (§1) 9 male C57BL/6J mice following administration of a single subcutaneous dose of 4.40 mg/kg. The vehicle for the subcutaneous formulation contained “0.1% sodium metabisulfite solution”.
(§2) Male C57BL/6J mice were purchased from Si Bei Fu Laboratory Animal Technology Co. Ltd (Beijing, China). The animals were about 8 weeks old with body weights of 20-30 g on the dosing date. The animals were housed in a 12-hour light/12-hour dark cycle environment and had free access to food and water. All animals were fasted overnight and fed after 4 hours collection.
(§3) For group 1, plasma samples were collected from dorsal metatarsal vein at each time point after subcutaneous administrations.
(§4) For plasma samples, about 30 μL or 300 μL of blood samples were collected from each animal via dorsal metatarsal vein or heart. These blood samples were placed into the tubes containing K2EDTA. And centrifugation at 3000 g for 10 minutes in a 4° C. centrifuge. The completion time from collection was less than 30 min. The stabilizing agent of ascorbic acid at 200 mg/mL was added in a proportion of 10% in plasma. The plasma samples were stored in a freezer at −75±15° C. prior to analysis. The completion time from collection was less than 60 min.
(§5) For brain and CSF samples, The animals were fully exsanguinated with a rising concentration of CO2 gas prior to CSF and brain collection.
(§6) For CSF collection, incision was made by scissors on the neck of the rats to expose the foramen magnum. A syringe fitted with a venoclysis needle was used to sample the CSF, the tip of the needle was inserted into the membrane of foramen magnum about 1-2 mm, and a negative pressure was applied by pulling a stopcock a small length of the syringe to extract CSF fluids into a tube. The stopcock was further actuated to until a sufficient amount of CSF was collected. There should be no blood in the CSF fluid. A stabilizing agent of ascorbic acid at 200 mg/mL was added in a proportion of 10% in CSF.
(§7) For brain collection. Brain samples were collected at an adopted time point, and washed 3 times with cold saline, then dried with clean gauze and put into the weighed tube, quick frozen in an ice box and kept at −75±15° C. All brain samples were weighted and homogenized with phosphate buffered saline (PBS) by brain weight (g) to PBS volume (mL) ratio 1:3 before analysis. The stabilizing agent of ascorbic acid at 200 mg/mL was added in a proportion of 10% in grain homogenate. The actual concentration was the detected value multiplied by the dilution factor. Brain samples were collected at designed time point, quickly homogenized and kept at −75±15° C.
(§8) Calibration standard working solutions were prepared at concentrations of 2, 5, 10, 20, 50, 100, 500, 1000, 5000 and 10000 ng/mL by serial dilution of the standard stock solution in 50% acetonitrile in water. Quality control working solutions at concentrations of 5, 10, 500 and 8000 ng/mL were prepared by serial dilution of the standard stock solution in 50% acetonitrile in water. These QC samples were prepared on the day of analysis in the same way as calibration standards.
(§9) For plasma and brain samples, 3 μL of each calibration standard working solution (2, 5, 10, 20, 50, 100, 500, 1000, 5000 and 10000 ng/mL) was added to 30 μL of the blank C57BL/6J mouse plasma or brain homogenate (with 10% 200 mg/mL ascorbic acid) to achieve calibration standards of 0.2-1000 ng/mL (0.2, 0.5, 1, 2, 5, 10, 50, 100, 500, 1000 ng/mL) in a total volume of 33 μL. Quality Control (QC) samples at 0.5 ng/mL (low-1), 1 ng/mL (low-2), 50 ng/mL (mid), 800 ng/mL (high) for plasma were prepared independently for those used for the calibration curves. These QC samples were prepared on the day of analysis in the same way as calibration standards.
The conditions of series [2]: male, SD, rat, in vivo, iv, 0.88 mg/kg, 1 h.
Experimental: (§10) The vehicle for the IV, subcutaneous, PO and IN formulation contained “0.1% sodium metabisulfite solution”.
(§11) Male SD rats were purchased from Si Bei Fu Laboratory Animal Technology Co. Ltd (Beijing, China). The animals were about 8 weeks old with body weights of 200-300 g on the dosing date. The animals were housed in a 12-hour light/12-hour dark cycle environment and had free access to food and water. All animals were fasted overnight and fed after 4 hours collection.
(§12) Plasma samples were collected from jugular vein at each time point after IV, subcutaneous, PO and IN administrations.
(§13) About 200 μL of blood samples were collected from each animal via jugular vein. These blood samples were placed into the tubes containing K2EDTA. And centrifugation at 3000 g for 10 minutes in a 4° C. centrifuge. The completion time from collection was less than 30 min. The stabilizing agent of ascorbic acid at 200 mg/mL was added in a proportion of 10% in plasma. The plasma samples were stored in a freezer at −75±15° C. prior to analysis. The completion time from collection was less than 60 min.
(§14) Calibration standard working solutions were prepared at concentrations of 2, 5, 10, 20, 50, 100, 500, 1000, 5000 and 10000 ng/mL by serial dilution of the standard stock solution in 50% acetonitrile in water. Quality control working solutions at concentrations of 5, 10, 20, 500 and 8000 ng/mL were prepared by serial dilution of the standard stock solution in 50% acetonitrile in water. These QC samples were prepared on the day of analysis in the same way as calibration standards.
(§15) For plasma samples, 2 μL of each calibration standard working solution (2, 5, 10, 20, 50, 100, 500, 1000, 5000 and 10000 ng/mL) was added to 20 μL of the blank SD rat plasma (with 10% 200 mg/mL ascorbic acid) to achieve calibration standards of 0.2-1000 ng/mL (0.2, 0.5, 1, 2, 5, 10, 50, 100, 500, 1000 ng/mL) in a total volume of 22 μL. Quality Control (QC) samples at 0.5 ng/mL (low-1), 1 ng/mL (low-2) and 2 ng/mL (low-3), 50 ng/mL (mid), 800 ng/mL (high) for plasma were prepared independently for those used for the calibration curves. These QC samples were prepared on the day of analysis in the same way as calibration standards. The total volumes of 22 μL of standards, 22 μL of QC samples and 22 μL of unknown samples (20 μL of unknown plasma (with 10% 200 mg/mL ascorbic acid) with 2 μL 50% acetonitrile) were added to 200 μL of acetonitrile containing IS to precipitate proteins. Then the samples were vortexed for 30 sec. After centrifugation at 4° C., 4700 rpm for 30 min, and supernatant was diluted 2 times with water, 10 μL of the diluted supernatant was injected into the LC-MS/MS system for quantitative analysis.
All the samples were processed on ice.
(§16) The LC-MS/MS system consisted of two Shimadzu LC-30AD pumps, a DGU-20A5R degasser, a Rack changer II and LCMS-8060 LC/MS/MS instrument mass spectrometer.
(§17) OD-3R Particle size 3 μm 4.6 mm×150 mm column at room temperature. The mobile phase was composed of A: Water (5 mM Ammonium Acetate); B: Ethanol (5 mM Ammonium Acetate). The flow rate was 0.5 mL/min. The injection volume was 10 μL.
(§18) A multiple reaction monitoring (MRM) method was selected for quantitative analysis. […] The instrument parameters were set as follows: ion spray voltage: 8060; heating gas flow: 10 L/min; interface temperature: 250° C.; DL temperature: 220° C.; heat block temperature: 400° C.; drying gas flow: 10 L/min.
(§19) Data acquisition was performed by Lab Solutions version 5.89 Software (Shimadzu). All concentration data was reported with 3 significant figures. Data statistics were performed using Excel 2010 software.
(§20) The linear trapezoidal algorithm was used for AUC calculation.
Series [3] in a line: in vivo. As to conditions: male, C57BL/6J, mouse.
Experimental: as §1, §2, §3, §4, §5, §6, §7, §8, §9
The conditions of series [4]: mouse, in vivo.
Experimental: as §1, §2, §3, §4, §5, §6, §7, §8, §9
The nature of series [5]: in vivo. The following applies: male, SD, rat, iv, 0.88 mg/kg.
Experimental: as §10, §11, §12, §13, §14, §15
All the samples were processed on ice.
as §16, §17, §18, §19, §20
Series [6] can be described thus: Solubility in aqueous media / aqueous buffer solutions. The format is physicochemical. As to conditions: hydrochloride salt, aqueous buffer solutions.

Several values for one entry are separate records, joined by “and”; a condition that tells them apart may be missing. Equal values may be shown once. Read-outs that look alike come from different tables or passages of the source.

`CN1CCc2cccc3c2[C@H]1Cc1ccc(O)c(O)c1-3`: the Cmax in series [1] was found to be 7.78 ng/mL; in “in vivo [3]” (sc, 0.0367 mg/kg, Cmax), 8.56 ng/mL. Also, the plasma concentration in series [2] was 0.207 ng/mL; in series [4], “BLOQ”. In addition, the concentration at […] was 10.1 ng/mL in “in vivo [3]” (0.0367 mg/kg, plasma concentration); 48.4 ng/g in “in vivo [3]” (brain concentration, Mean); 7.46 ng/mL and 8.5 ng/mL in the series “in vivo [3]” (plasma concentration); 6.5 ng/mL and 8.16 ng/mL in “in vivo [3]” (plasma concentration, Mean). The concentration at 0.5 h in the series “in vivo [3]” (brain concentration, Conc. (ng/g)) was determined as 38 ng/g; in “in vivo [3]” (brain concentration, Conc. (ng/mL)), 7.6 ng/mL; in “in vivo [3]” (brain concentration, Mean), 39.6 ng/g; in “in vivo [3]” (plasma concentration) it was 5.06 ng/mL; in the series “in vivo [3]” (plasma concentration, Mean), 5.15 ng/mL; in “in vivo [5]” (mean plasma concentration), 0.559 ng/mL. The concentration at 0.5 h in the series “in vivo [5]” (plasma concentration) was determined as 0.582 ng/mL. For the same compound, the concentration at 1 h in the series “in vivo [3]” (plasma concentration) came out at 1.82 ng/mL; in “in vivo [3]” (plasma concentration, Mean), 1.65 ng/mL; in the series “in vivo [5]” (mean plasma concentration), 0.232 ng/mL; in “in vivo [5]” (plasma concentration) it was 0.257 ng/mL. Moreover, the AUC(0-t) in the series “in vivo [3]” (sc, 0.0367 mg/kg, AUClast) was 5.1 ng·h/mL. For the same compound, in the series “in vivo [3]” (sc, 0.0367 mg/kg, AUC∞), the AUC(0-inf) amounted to 5.99 ng·h/mL. Also, the MRT inf in “in vivo [3]” (sc, 0.0367 mg/kg, MRTInf) came to 32.5 min. Moreover, the Tmax in series [4] (male, C57BL/6J, sc, 0.0367 mg/kg) is 11.7 min. In addition, the concentration at 2 min in the series “in vivo [5]” (mean plasma concentration) came out at 3.75 ng/mL; in the series “in vivo [5]” (plasma concentration), 3.85 ng/mL.

Consider `CN1CCc2cccc3c2[C@@H]1Cc1ccc(O)c(O)c1-3.Cl`, for which the solubility entry in series [6] is listed as “low solubility”.

The term Cmax denotes the maximum level reached in the sampled fluid or tissue. The AUC(0-t) is exposure summed from dosing to a finite time, without extrapolation to infinity. A high value points to more exposure. As usually defined, the AUC(0-inf) is total exposure, with the tail of the curve extrapolated. A low value points to less exposure. One may read the MRT inf as the average time that molecules of a dose stay in the body. One may read the Tmax as the time at which the peak concentration occurs.

The record behind these values is patent publication US20230141988A1, “PHARMACEUTICAL COMPOSITION FOR USE IN THE TREATMENT OF NEUROLOGICAL DISEASES” (Aclipse One Inc., priority 2020, published 2023).
